US7148244B2, “Medicines in controlling Vpr function” (Nippon Shinyaku Co. Ltd., priority 2001, dated 2006)

Experiments:
HeLa = test: In vitro functional antagonism between flavonoid (quercetin) and compound; microscopic observation of cell morphologies; format: cell-based
Description: Three types of cells were employed (HeLa, ECV304, and HBL-100, purchased from ATCC), and for each type, 1×10^5 cells were seeded in a 10 cm dish and cultured in D-MEM/F-12 medium (Gibco BRL) for 18–20 hours. On the next day, the medium was changed to the same medium containing 1.0 μM quercetin (Sigma; hereinafter abbreviated to QCT), followed by culturing for an additional 2 days. The compound A was then added at a concentration of 600 nM, and 72 hours later observations under a microscope were made of cell morphologies.

FLAG-fused Vpr = target: T1, FLAG-fused Vpr (Human immunodeficiency virus type 1 group M subtype B, UniProt P12520); test: In vitro direct binding of Vpr and compound; affinity precipitation with compound-immobilized Sepharose beads; set-up: species or system HIV
T1 construct: made in house; host or cells: TNT-coupled wheat germ extract in vitro transcription/translation (Promega), with 35S-methionine
Text: A Vpr gene fused to N-terminal FLAG (SEQ ID NO:1) was obtained by PCR (polymerase chain reaction) using as a template pBT-1 (purchased from ATCC) into which the HIV genome without env had been incorporated. Primers utilized were synthetic DNAs having the following sequences (SEQ ID NOs:1 and 2). N-terminal FLAG: Asp Tyr Lys Asp Asp Asp Asp Lys (SEQ ID NO:1);
The DNA fragment of interest (300 bp) was recovered from PCR reaction products by agarose gel electrophoresis, and then cloned into the pGEM-T vector (Promega). This fragment was base analyzed on both plus and minus strands and was verified to correspond to the intended fused Vpr. The vector into which the Vpr gene fused to FLAG has been incorporated is hereinafter referred to as pGEM-T/Vpr-wt. […]
(§1) Preparation of FLAG-fused Vpr was performed by transcription and translation from the T7 promoter employing the TNT-coupled wheat germ extract in vitro transcription/translation system (wheat germ extract transcription/translation system) (Promega). […] Whether these products were Vpr was analyzed by carrying out western blotting according to typical procedures employing an anti-FLAG antibody after samples resulting from transcription and translation in the absence of the radiolabel were denatured with SDS (sodium dodecylsulfate). […]

FLAG-fused VprΔC = target: T2, FLAG-fused VprΔC (Human immunodeficiency virus type 1 group M subtype B, UniProt P12520); test: as above; set-up: species or system HIV; settings: FIG. 2 (2) lane 5
T2 construct: made in house; host or cells: TNT-coupled wheat germ extract in vitro transcription/translation (Promega), with 35S-methionine
Text: The DNA fragment of interest (300 bp) was recovered from PCR reaction products by agarose gel electrophoresis, and then cloned into the pGEM-T vector (Promega). This fragment was base analyzed on both plus and minus strands and was verified to correspond to the intended fused Vpr. The vector into which the Vpr gene fused to FLAG has been incorporated is hereinafter referred to as pGEM-T/Vpr-wt. Furthermore, using this pGEM-T/Vpr-wt as a template, a second Vpr gene fused to FLAG in which a C-terminal region of Vpr (a.a. 73–96) was deleted was obtained by PCR utilizing primers shown below (SEQ ID Nos:4 and 5).
This fused gene was cloned into the pGEM-T vector as described above, and the resulting vector is hereinafter referred to as pGEM-T/VprΔC. […]
as §1

Vpr = Vpr (Human immunodeficiency virus type 1 group M subtype B, UniProt P12520); settings: literature, Shimura M. et al. 1999; cited from earlier work
Sequence of Vpr (P12520 whole entry): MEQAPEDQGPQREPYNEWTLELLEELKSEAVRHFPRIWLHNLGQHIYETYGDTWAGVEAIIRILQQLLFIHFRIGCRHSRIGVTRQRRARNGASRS

T1 sequence (P12520 whole entry, the tested form may be a part): as the sequence (P12520 whole entry) above
T2 sequence (P12520 1-72, stated change not applied): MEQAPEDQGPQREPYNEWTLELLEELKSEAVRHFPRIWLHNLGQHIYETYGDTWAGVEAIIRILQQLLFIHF

| SMILES | effects of the compound after pre-treatment with quercetin (HeLa; HeLa cells, 1.0 μM quercetin for 48 hours, then compound 600 nM for 72 hours) | cell cycle state, cell morphology under a microscope (HeLa; HeLa cells, compound 600 nM alone, 72 hours, compared with the control group) | number of multinucleate cells having plural nuclei within single cells (HeLa; compound 600 nM alone, 72 hours, compared with the control group) | binding of radiolabeled FLAG-fused Vpr to compound-immobilized beads (FLAG-fused Vpr; affinity precipitation, FIG. 2 (2) lane 3) | region of Vpr to which the compound binds (FLAG-fused Vpr; concluded from binding to Vpr and no binding to VprΔC) | binding of radiolabeled FLAG-fused VprΔC (C-terminal a.a. 73–96 deleted) to compound-immobilized beads (FLAG-fused VprΔC) | effect on Vpr functions (Vpr) |
| --- | --- | --- | --- | --- | --- | --- | --- |
| COc1ccc(S(=O)(=O)Nc2c(/C=C/c3ccncc3)cccc2OCCN)cc1 [compound B, (E)-4-[2-{3-(2-aminoethyloxy)-2-[N-(4-methoxybenzenesulfonyl)amino]phenyl}ethenyl]pyridine] | disappear almost completely | the cell cycle is arrested at the G2/M period | apparently increased | observed to bind | binds directly to the C-terminal region | not observed to bind |  |
| O=c1c(O)c(-c2ccc(O)c(O)c2)oc2cc(O)cc(O)c12 [quercetin] |  |  |  |  |  |  | inhibits Vpr functions |
